US12152034B2, “FGFR inhibitors and methods of making and using the same” (Relay Therapeutics, Inc., priority 2020, dated 2024)
Values joined by “and” are separate entries in the source; they are usually repeats but may differ in a detail not shown here. Identical values can stand only once. “Also recorded” adds a separate entry of the source. Like-named read-outs stand apart in the source and are kept apart here.

Columns and labels:
Assay type in all cases: physicochemical
[1] = Storage at 40° C./75% RH for 7 days (one week), form checked by XRPD; conditions: for Storage at 40° C./75% RH for one week (row head not given): Compound IV salts; for Storage at 40° C./75% RH for one week (row head not given) / Storage at 40° C./75% RH for 7 days: form by XRPD; for XRPD after storage at 40° C./75% RH for 7 days: one week (7 days); for Storage at 40° C./75% RH for 7 days: Compound III salts
Description: The suspensions were then cooled down to 5° C. at 0.1° C./min and were held at this temperature for 16 hrs. Stirring (500 rpm) was maintained throughout. Any gums that formed were maturated between 25 and 50° C. (4 hours at each temperature for 24 hrs). The suspensions were isolated by filtration under suction and air dried then analysed by XRPD. Any new patterns identified by XRPD were analysed further by NMR, TGA, DSC and stability at 40 C/75% RH for 1 week.

[2] = Solubility measurements in SGF, FeSSIF and FaSSIF with XRPD of residual solids; conditions: for solubility in all media (in words): FeSSIF and FaSSIF; for solubility in FeSSIF (in words): simulated fed state intestinal fluid; for Average Solubility / XRPD of residual solid / pH at 24 hrs / Solubility: Compound III-1, HCl and sulfate salts; for Solubility: single replicate
Source text: The results from the solubility measurements in simulated gastric fluid (SGF), simulated fed state conditions in the small intestines (FeSSIF), and simulated fasting state conditions in the small intestines fluid (FaSSIF) are summarised in Table 12. The salts show reduced solubility in SGF compared to the free form.
Crystalline FB Form A, HCl Form A, and the sufate salt Form A were scaled up for solubility analysis.
HCl Form A was successfully scaled up for solubility analysis.

[3] = Solubility assessment in solvents by aliquot addition (5-40 vol, 25° C., then heating)
Description: Compound II-1 (40 mg) was treated with an aliquot of solvent (200 μl for 5 vol, 400 μl for 10 vol, 800 μl for 20 vol) and left to stir at 25° C. for 15 minutes. After 15 minutes, suspensions were treated with another aliquot of solvent and left to stir for the same duration again. Any solutions were removed from stirring and further solvent additions. This procedure was repeated up to 40 vol.
At 40 vol, any remaining suspensions were heated to 40° C. at a rate of 10° C./min. Samples that remained as suspensions at 40° C. were moved to the maturation chamber (RT/50° C.) for 4 days. All solutions from solvent additions were heated to 50° C. before cooling to 5° C. at a rate of 0.1° C./min, then held at 5° C. overnight. […]

[4] = simulated fasting state intestinal fluid

C#Cc1cc(C)c(-c2c(-c3ccc(Oc4nccc(C)n4)c(F)c3)c3c(C)ncnc3n2C)c(C)n1.O=S(=O)(O)c1ccccc1 [BSA Form A]
Storage at 40° C./75% RH for one week (row head not given) [1]: Change in form -

C=C(C)C(=O)Nc1ccc(-c2c(C3=CC[C@H](C(=O)N4CCCC4)CC3)c3c(N)ncnc3n2C)c(C)c1.Cl [Compound II-2]
XRPD after storage at 40° C./75% RH for 7 days [1]: no change

Br.C=C(C)C(=O)Nc1ccc(-c2c(C3=CC[C@H](C(=O)N4CCCC4)CC3)c3c(N)ncnc3n2C)c(C)c1 [Compound II-3]
XRPD after storage at 40° C./75% RH for 7 days [1]: convert to an amorphous form

C=C(C)C(=O)Nc1ccc(-c2c(C3=CC[C@H](C(=O)N4CCCC4)CC3)c3c(N)ncnc3n2C)c(C)c1.Cc1ccc(S(=O)(=O)O)cc1 [Compound II-4]
solubility in FaSSIF (in words) [2]: highest solubility
XRPD after storage at 40° C./75% RH for 7 days ([1]; listed as Compound II pTSA Form A): XRPD unchanged
XRPD after storage at 40° C./75% RH for 7 days ([1]; listed as Compound II pTSA Form B): conversion to pTSA Form A; also recorded: Converted to pTSA
XRPD after storage at 40° C./75% RH for 7 days ([1]; listed as Compound II pTSA Form C): conversion to pTSA Form A; also recorded: Converted to pTSA
XRPD after storage at 40° C./75% RH for 7 days ([1]; listed as Compound II-1 tosylate salt): no change

C=C(C)C(=O)Nc1ccc(-c2c(C3=CC[C@H](C(=O)N4CCCC4)CC3)c3c(N)ncnc3n2C)c(C)c1.O=S(=O)(O)c1ccccc1 [Compound II-6]
solubility in all media (in words) ([2]; SGF): low solubility
XRPD after storage at 40° C./75% RH for 7 days [1]: no change

C=C(C)C(=O)Nc1ccc(-c2c(C3=CC[C@H](C(=O)N4CCCC4)CC3)c3c(N)ncnc3n2C)c(C)c1.O=C(O)/C=C/C(=O)O [Compound II-7]
XRPD after storage at 40° C./75% RH for 7 days [1]: no change

C#Cc1cc(OC)c(-c2c(-c3ccc(Oc4nccc(C)n4)c(F)c3)c3c(C)ncnc3n2C)cn1.Cl [Compound III-2]
XRPD of residual solids after solubility measurement ([2]; FaSSIF): new form
solubility in FeSSIF (in words) [2]: lower solubility than the free form
XRPD after storage at 40° C./75% RH for 7 days ([1]; listed as Compound III HCl Form A): converting to HCl Form B
XRPD after storage at 40° C./75% RH for 7 days ([1]; listed as Compound III HCl Form B): large reduction in crystallinity
XRPD after storage at 40° C./75% RH for 7 days ([1]; listed as Compound III HCl Form D): no change in form
XRPD after storage at 40° C./75% RH for 7 days ([1]; listed as Compound III HCl Patterns 3 and 5): no change in form
XRPD after storage at 40° C./75% RH for 7 days ([1]; listed as Compound III-1 chloride salt): change form

Br.C#Cc1cc(OC)c(-c2c(-c3ccc(Oc4nccc(C)n4)c(F)c3)c3c(C)ncnc3n2C)cn1 [Compound III-3]
XRPD after storage at 40° C./75% RH for 7 days [1]: change form

C#Cc1cc(OC)c(-c2c(-c3ccc(Oc4nccc(C)n4)c(F)c3)c3c(C)ncnc3n2C)cn1.O=S(=O)(O)O [Compound III-4]
XRPD of residual solids after solubility measurement ([2]; FaSSIF): too poorly crystalline to assign
solubility in FaSSIF (in words) [2, 4]: slightly more soluble than the chloride salt
solubility in FeSSIF (in words) [2]: slightly more soluble than the chloride salt
XRPD after storage at 40° C./75% RH for 7 days ([1]; listed as Compound III-1 sulfate salt): small changes in the XRPD diffractogram

C#Cc1cc(OC)c(-c2c(-c3ccc(Oc4nccc(C)n4)c(F)c3)c3c(C)ncnc3n2C)cn1.CS(=O)(=O)O [Compound III-5]
XRPD after storage at 40° C./75% RH for 7 days [1]: lose crystallinity

C#Cc1cc(OC)c(-c2c(-c3ccc(Oc4nccc(C)n4)c(F)c3)c3c(C)ncnc3n2C)cn1.O=C(O)C(O)C(O)C(=O)O [Compound III-6]
XRPD after storage at 40° C./75% RH for 7 days [1]: No change in form

C#Cc1cc(C)c(-c2c(-c3ccc(Oc4nccc(C)n4)c(F)c3)c3c(C)ncnc3n2C)c(C)n1 [Compound IV-1, 6-(6-ethynyl-2,4-dimethylpyridin-3-yl)-5-(3-fluoro-4-((4-methylpyrimidin-2-yl)oxy)phenyl)-4,7-dimethyl-7H-pyrrolo[2,3-d]pyrimidine]
Observation after treatment ([3]; 2-Propanol, after cooling from 50° C. to 5° C.): Clear solution
Observation after treatment ([3]; 10% Water/IPA, after cooling from 50° C. to 5° C.): Clear solution
Observation after treatment ([3]; 10% Water/MeCN, after cooling from 50° C. to 5° C.): Clear solution
solubility in the solvents tested (in words) ([3]; 13 solvents, up to 40 vol): soluble in all but three of the solvents tested
Observation after treatment ([3]; Acetone, after cooling from 50° C. to 5° C.): Clear solution
Observation after treatment ([3]; Ethanol, after cooling from 50° C. to 5° C.): Clear solution
Observation after treatment ([3]; Ethyl acetate, after cooling from 50° C. to 5° C.): Clear solution
Observation after treatment ([3]; Isopropyl acetate, after cooling from 50° C. to 5° C.): Clear solution
Observation after treatment ([3]; MEK, after cooling from 50° C. to 5° C.): Clear solution
Observation after treatment ([3]; Methanol, after cooling from 50° C. to 5° C.): Clear solution
Observation after treatment ([3]; TBME, 40 vol, after maturation (RT/50° C.) 4 days): Suspension
Observation after treatment ([3]; THF, after cooling from 50° C. to 5° C.): Clear solution
Observation after treatment ([3]; Water, 40 vol, after maturation (RT/50° C.) 4 days): Suspension
Observation after treatment ([3]; n-Heptane, 40 vol, after maturation (RT/50° C.) 4 days): Suspension
XRPD of residual solids after solubility measurement ([2]; all media (SGF, FeSSIF, FaSSIF)): remained unchanged
solubility in FaSSIF (in words) [2, 4]: lowest solubility

C#Cc1cc(C)c(-c2c(-c3ccc(Oc4nccc(C)n4)c(F)c3)c3c(C)ncnc3n2C)c(C)n1.Cl [Compound IV-2]
XRPD of residual solids after solubility measurement ([2]; FaSSIF): converted to free form Form A
XRPD of residual solids after solubility measurement ([2]; FeSSIF): converted to free form Form A
solubility in all media (in words) ([2]; SGF): more soluble than the tosylate salt
solubility in SGF (in words) ([2]; simulated gastric fluid): completely dissolved
XRPD after storage at 40° C./75% RH for 7 days [1]: no change to form

C#Cc1cc(C)c(-c2c(-c3ccc(Oc4nccc(C)n4)c(F)c3)c3c(C)ncnc3n2C)c(C)n1.Cc1ccc(S(=O)(=O)O)cc1 [Compound IV-3]
XRPD of residual solids after solubility measurement ([2]; FaSSIF): remained unchanged
XRPD of residual solids after solubility measurement ([2]; FeSSIF): too poorly crystalline to assign
XRPD of residual solids after solubility measurement ([2]; SGF): remained unchanged
XRPD after storage at 40° C./75% RH for 7 days ([1]; listed as Compound IV pTSA Form A): pTSA Form B
XRPD after storage at 40° C./75% RH for 7 days ([1]; listed as Compound IV-1 tosylate salt): change form

C#Cc1cc(C)c(-c2c(-c3ccc(Oc4nccc(C)n4)c(F)c3)c3c(C)ncnc3n2C)c(C)n1.CS(=O)(=O)O [Compound IV-4]
XRPD after storage at 40° C./75% RH for 7 days [1]: lose crystallinity

C#Cc1cc(C)c(-c2c(-c3ccc(Oc4nccc(C)n4)c(F)c3)c3c(C)ncnc3n2C)c(C)n1.O=S(=O)(O)c1ccccc1 [Compound IV-5]
XRPD after storage at 40° C./75% RH for 7 days [1]: change form

Br.C#Cc1cc(OC)c(-c2c(-c3ccc(Oc4nccc(C)n4)c(F)c3)c3c(C)ncnc3n2C)cn1 [HBr Form A]
Storage at 40° C./75% RH for 7 days [1]: Change in form -

C#Cc1cc(C)c(-c2c(-c3ccc(Oc4nccc(C)n4)c(F)c3)c3c(C)ncnc3n2C)c(C)n1.Cl [HC1 Form A]
Storage at 40° C./75% RH for one week (row head not given) [1]: Reduced crystallinity -

C#Cc1cc(OC)c(-c2c(-c3ccc(Oc4nccc(C)n4)c(F)c3)c3c(C)ncnc3n2C)cn1.O=S(=O)(O)O [SO4 Form A]
Average Solubility ([2]; FaSSIF): 1950 µg/mL
XRPD of residual solid ([2]; FaSSIF): Poorly crystalline
pH at 24 hrs ([2]; FaSSIF): 2.6 and 2.7
Solubility ([2]; FaSSIF): 2000 µg/mL and 1900 µg/mL
Average Solubility ([2]; FeSSIF): 230 µg/mL
XRPD of residual solid ([2]; FeSSIF): FB Form C
pH at 24 hrs ([2]; FeSSIF): 4.4
Solubility ([2]; FeSSIF): 240 µg/mL and 220 µg/mL
Average Solubility ([2]; SGF): >10500 µg/mL
pH at 24 hrs ([2]; SGF): 1.7
Solubility ([2]; SGF): >10200 µg/mL and >10700 µg/mL

C#Cc1cc(OC)c(-c2c(-c3ccc(Oc4nccc(C)n4)c(F)c3)c3c(C)ncnc3n2C)cn1.O=C(O)C(O)C(O)C(=O)O [TAR Form A]
Storage at 40° C./75% RH for 7 days [1]: No change

C#Cc1cc(C)c(-c2c(-c3ccc(Oc4nccc(C)n4)c(F)c3)c3c(C)ncnc3n2C)c(C)n1.Cc1ccc(S(=O)(=O)O)cc1 [pTSA Form A]
Storage at 40° C./75% RH for one week (row head not given) [1]: Change in form -
